Measured values as given in ChEMBL document CHEMBL1144830, “Synthesis of small molecule inhibitors of the orphan nuclear receptor steroidogenic factor-1 (NR5A1) based on isoquinolinone scaffolds” (Bioorg Med Chem Lett, 2008).
pIC50: −log10 of the molar value.

Columns and labels:
[1] = Inhibition of HSV1 GAL4-tagged VP16 at 100 uM by luciferase assay
[2] = target: T1, Nuclear receptor ROR-alpha (Homo sapiens, UniProt P35398); assay: Inhibition of GAL4-tagged RORalpha by luciferase assay
T1 sequence (P35398 whole entry): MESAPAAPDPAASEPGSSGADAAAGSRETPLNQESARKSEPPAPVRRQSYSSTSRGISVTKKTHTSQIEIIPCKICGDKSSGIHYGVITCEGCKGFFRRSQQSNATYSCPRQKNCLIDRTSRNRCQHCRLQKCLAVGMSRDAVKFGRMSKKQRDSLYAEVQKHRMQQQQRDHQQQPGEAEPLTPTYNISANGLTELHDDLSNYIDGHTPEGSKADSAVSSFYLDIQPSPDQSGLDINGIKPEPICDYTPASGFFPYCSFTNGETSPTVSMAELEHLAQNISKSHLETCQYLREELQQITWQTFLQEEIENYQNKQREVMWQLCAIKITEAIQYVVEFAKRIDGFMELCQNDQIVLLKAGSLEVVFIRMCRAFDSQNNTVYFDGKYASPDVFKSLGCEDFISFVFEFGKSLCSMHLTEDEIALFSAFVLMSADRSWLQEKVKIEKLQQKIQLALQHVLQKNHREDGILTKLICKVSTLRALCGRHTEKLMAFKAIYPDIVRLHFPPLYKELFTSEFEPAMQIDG

Steroidogenic factor 1 [3] = target: T2, Steroidogenic factor 1 (Homo sapiens, UniProt Q13285); assay: Inhibition of GAL4-tagged NR5A1 by luciferase assay
T2 sequence (Q13285 whole entry, the tested form may be a part): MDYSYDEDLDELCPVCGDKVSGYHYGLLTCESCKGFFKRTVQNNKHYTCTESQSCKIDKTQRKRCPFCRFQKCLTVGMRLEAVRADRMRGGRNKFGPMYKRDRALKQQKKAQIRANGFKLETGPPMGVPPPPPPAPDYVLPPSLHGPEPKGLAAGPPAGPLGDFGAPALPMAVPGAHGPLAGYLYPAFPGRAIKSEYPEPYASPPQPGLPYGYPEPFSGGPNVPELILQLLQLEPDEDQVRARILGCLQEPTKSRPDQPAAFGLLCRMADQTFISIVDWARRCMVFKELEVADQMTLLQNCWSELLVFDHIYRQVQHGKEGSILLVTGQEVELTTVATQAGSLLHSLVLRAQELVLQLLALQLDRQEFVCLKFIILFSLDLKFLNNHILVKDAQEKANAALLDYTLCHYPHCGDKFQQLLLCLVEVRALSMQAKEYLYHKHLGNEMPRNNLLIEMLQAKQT

[4] = Inhibition of HSV1 GAL4-tagged VP16 by luciferase assay
[5] = target: T3, Nuclear receptor ROR-alpha (Homo sapiens) (UniProt P35398); assay: Inhibition of GAL4-tagged RORalpha at 100 uM by luciferase assay
T3 sequence (whole entry): T1 sequence (P35398 whole entry)

Steroidogenic factor 1 [6] = target: T2, Steroidogenic factor 1; assay: Inhibition of GAL4-tagged NR5A1 at 100 uM by luciferase assay

| SMILES | inhibition [1] [%] | pIC50 [2] | pIC50 (Steroidogenic factor 1 [3]) | pIC50 [4] | inhibition [5] [%] | inhibition (Steroidogenic factor 1 [6]) [%] |
| --- | --- | --- | --- | --- | --- | --- |
| CCOC(=O)C(C)Oc1cccc2c(=O)n(CC(=O)NCc3ccc(F)cc3)ccc12 (stereo unspecified) | < 50 | 5.77 | 6.17 |  |  |  |
| CCOC(=O)C(C)Oc1cccc2c(=O)n(CC(=O)NCc3ccco3)ccc12 (stereo unspecified) | < 50 | < 4.48 | 5.33 |  |  |  |
| CCOC(=O)C(C)Oc1cccc2c(=O)n(CC(=O)Nc3ccc4c(c3)OCCO4)ccc12 (stereo unspecified) |  | < 4.48 | 6.12 | < 4.48 |  |  |
| CCOC(=O)C(C)Oc1cccc2c(=O)n(CC(=O)N(C)c3ccc4c(c3)OCCO4)ccc12 (stereo unspecified) | < 50 |  | 5.45 |  | < 50 |  |
| CCOC(=O)C(C)Oc1ccc2c(=O)n(CC(=O)Nc3ccc4c(c3)OCCO4)ccc2c1 (stereo unspecified) | < 50 |  |  |  | < 50 | < 50 |
| CCOC(=O)C(C)Oc1cccc2c(=O)n(CC(=O)NC3CCCCC3)ccc12 (stereo unspecified) | < 50 |  | 5.75 |  | < 50 |  |
| CCCCc1ccc(NC(=O)Cn2ccc3c(OC(C)C(=O)OCC)cccc3c2=O)cc1 (stereo unspecified) | < 50 | 4.51 | 6.44 |  |  |  |
| CCOC(=O)C(C)Oc1cccc2c(=O)n(C(C)C(=O)Nc3ccc4c(c3)OCCO4)ccc12 (stereo unspecified) | < 50 |  |  |  | < 50 | < 50 |
| CCOC(=O)C(C)(C)Oc1cccc2c(=O)n(CC(=O)Nc3ccc4c(c3)OCCO4)ccc12 |  |  | 6.23 | < 4.48 | < 50 |  |
| CCCCOc1cccc2c(=O)n(CC(=O)Nc3ccc4c(c3)OCCO4)ccc12 |  | 4.67 | 4.86 | 4.62 |  |  |
| CCCCNC(=O)Cn1ccc2c(OC(C)C(=O)OCC)cccc2c1=O (stereo unspecified) | < 50 |  | 5.01 |  | < 50 |  |
| CCOC(=O)C(C)Oc1cccc2c(=O)n(CC(=O)NCc3ccccc3)ccc12 (stereo unspecified) | < 50 | 5.49 | 5.97 |  |  |  |
| CCOC(=O)C(C)Oc1cccc2c(=O)n(CC(=O)Nc3ccc([N+](=O)[O-])cc3)ccc12 (stereo unspecified) | < 50 |  | 6.28 |  | < 50 |  |
| CCOC(=O)C(C)Oc1cccc2c(=O)n(CCC(=O)Nc3ccc4c(c3)OCCO4)ccc12 (stereo unspecified) | < 50 |  | 5.07 |  | < 50 |  |
| CCOC(=O)C(C)Oc1cccc2c(=O)n(C(Cc3ccccc3)C(=O)Nc3ccc4c(c3)OCCO4)ccc12 (stereo unspecified) | < 50 |  |  |  | < 50 | < 50 |

Continued, values first:

| inhibition [1] [%] | pIC50 [2] | pIC50 (Steroidogenic factor 1 [3]) | pIC50 [4] | inhibition [5] [%] | inhibition (Steroidogenic factor 1 [6]) [%] | SMILES |
| --- | --- | --- | --- | --- | --- | --- |
|  | < 4.48 | 6.59 | < 4.48 |  |  | CCOC(=O)C(C)Oc1cccc2c(=O)n(CC(=O)NCc3ccc4c(c3)OCO4)ccc12 (stereo unspecified) |
|  | 4.60 | 6.96 | < 4.48 |  |  | CCOC(=O)C(C)Oc1cccc2c(=O)n(CC(=O)Nc3ccc(CC)cc3)ccc12 (stereo unspecified) |
|  | 4.44 | 6.47 | < 4.48 |  |  | CCOC(=O)C(C)Oc1cccc2c(=O)n(CC(=O)Nc3ccc(C)cc3)ccc12 (stereo unspecified) |
| < 50 |  | 6.70 |  | < 50 |  | CCOC(=O)C(C)Oc1cccc2c(=O)n(CC(=O)Nc3ccc(OC(F)(F)F)cc3)ccc12 (stereo unspecified) |
|  | 4.65 | 6.72 | 4.62 |  |  | CCOC(=O)C(C)Oc1cccc2c(=O)n(CC(=O)Nc3ccc(OCC)cc3)ccc12 (stereo unspecified) |
| < 50 | < 4.48 | 6.44 |  |  |  | CCOC(=O)C(C)Oc1cccc2c(=O)n(CC(=O)NCCc3ccccc3)ccc12 (stereo unspecified) |
| < 50 |  | 6.70 |  | < 50 |  | CCOC(=O)C(C)Oc1cccc2c(=O)n(CC(=O)Nc3ccc(OC)cc3)ccc12 (stereo unspecified) |
